Results on two compounds are retold here after paper PMC6406907, “A H2AX–CARP-1 Interaction Regulates Apoptosis Signaling Following DNA Damage” (Cancers, 2019).

This assay has as its system CARP-1, phospho-JNK1/2, phospho-H2AX, PARP. Description: Western blot of CARP-1, phospho-JNK1/2, γH2AX, cleaved PARP in MDA-MB-468. The format is cell-based, human. The conditions noted are these: for expression of CARP-1, phospho-JNK1/2, phospho-H2AX / PARP cleavage: MDA-MB-468, WB; for PARP cleavage: robust cleaved PARP over 12-h treatment period; for CARP-1 levels and γH2AX: MDA-MB-468, WB / IF. As for the experimental part:
Logarithmically growing cells were either untreated or treated with different agents for various time periods. The cells were lysed to prepare protein extracts. IP was carried out by incubating approximately 1 mg of the protein lysate with appropriate antibodies. The immunoprecipitates were then analyzed by SDS-PAGE, followed by WB with respective, interacting protein. For Gst-pulldown, Gst-H2AX or various His-TAT-HA-tagged CARP-1 peptides were generated in Escherichia coli (E. coli) BL21 cells essentially as described by us previously. Briefly, the competent E. coli BL-21 (DE3) pLysS cells were transformed separately with various recombinant pGEX-4T-1 or pTAT-HA constructs. The transformed cells were then subjected to selection by combined presence of ampicillin and chloramphenicol; various isolates for each transformation were obtained and bacterial lysates were characterized for expression of fusion peptides. Cells from each isolate were grown in 4 mL of LB medium containing ampicillin only until the optical density (OD)600 reached 0.4–0.8. Expression of fusion peptides was induced over 2–4 h incubation periods after Isopropyl β-D-1-thiogalactopyranoside (IPTG) addition. The cells were harvested, and pellets were stored at −80 °C overnight. The cell pellets were then lysed in 100–400 μL of bacterial protein extraction reagent (BPER) buffer (Thermo Scientific, Waltham, MA, USA, Cat# 78243) containing 2 μL/mL of 10 units/μL DNAse I (Boehringer Mannheim, Fremont, CA, USA, Cat # 776–785), and supernatant checked for expression of respective fusion peptides by WB. Following confirmation of expression, 5–20 μL of lysate expressing Gst fusion protein was first incubated with 20 μL of precleared glutathione sepharose in a final volume of 100 μL at 4 °C for 2 h with constant rotation. The sepharose beads were spun at 800× g for 2 min, and the pellet was washed 2–4 times with 100–200 μL of RIPA buffer (20 mM Tris-HCl (pH 7.5), 150 mM NaCl, 1 mM Na2EDTA, 1 mM EGTA, 1% NP-40, 1% sodium deoxycholate, 2.5 mM sodium pyrophosphate, 1 mM β-glycerophosphate, 1 mM Na3VO4, 1 µg/mL leupeptin) with 0.5 M NaCl. The beads were spun again as above, and mixed with 5–20 μL of E. coli lysate expressing His-TAT-HA CARP-1 peptides. The reactions were incubated further at 4 °C for 2 h with constant rotation. The peptide-bound sepharose beads were pelleted and washed with 100–200 μL of RIPA buffer with 0.1 M NaCl for 2–4 washes. In some cases, additional washes with 0.05 M NaCl buffer were carried out. After the final wash, the sepharose–protein complexes were spun, and then re-suspended in SDS loading buffer for electrophoresis on 12–15% SDS PAGE, followed by WB with appropriate antibodies.
Here, we utilized human TNBC MDA-MB-468 and human cervical cancer HeLa cells to conduct an MTT-based dose-response analysis using Adriamycin and CFM compounds. […] Since Adriamycin, CFM-4, and CFM-4.16 have molecular masses of 543.3, 404.9, and 440.3, respectively, we chose to use an equimolar dose of each compound in the MTT assays. […] Prior reports established that phosphorylation of H2AX at serine 139 (γ-H2AX) is involved in DNA damage repair and apoptotic signaling by ATM/ATR and JNKs, respectively. Next, the MDA-MB-468, HeLa, and the kidney cancer UOK 262 cells were treated with a 10 μM dose of the CFM-4.16 or Adriamycin for various time periods. The cell lysates from the control, untreated, and treated cells were analyzed by WB for expression of CARP-1, phospho-JNK1/2, phospho-H2AX, and poly ADP ribose polymerase (PARP) proteins. […] The H2AX activation is also indicative of DNA damage and involves pro-apoptotic JNKs. Our data in Figure 1C and Figure S1B,C (Supplementary Materials) also show activation of JNKs; however, a robust JNK activation is co-incident with H2AX phosphorylation following treatments with Adriamycin or CFM-4.16. […]
For orientation: In western blotting, separated proteins are transferred to a membrane and probed.

Take `COc1cccc2c1C(=O)c1c(O)c3c(c(O)c1C2=O)C[C@@](O)(C(=O)CO)C[C@@H]3O[C@H]1C[C@H](N)[C@H](O)[C@H](C)O1` [Adriamycin, doxorubicin, reference compound]: the “CARP-1 levels and γH2AX” value is “robust increase in CARP-1 levels and γH2AX”. The H2AX activation result (10 μM Adriamycin, WB) is given as “robust at 12 h”. Besides, for the setting “10 μM”, the “expression of CARP-1, phospho-JNK1/2, phospho-H2AX” value is “stimulated expression of CARP-1, phospho-JNK1/2, and phospho-H2AX in a time-dependent manner”; the PARP cleavage result is “provoked PARP cleavage in a time-dependent manner”. For the same compound, the “time of earliest stimulation of PARP cleavage” value (10 μM, MDA-MB-468, "as early as") is reported as 3 h. Besides, the γH2AX result (MDA-MB-468, Adriamycin alone, WB) is recorded as “robust increase in γH2AX”.

Regarding `O=C1N(Cc2ccccc2Cl)c2ccccc2C12NN=C(c1cccc(Cl)c1)S2` (stereo not drawn) [CFM-4.16], the “CARP-1 levels and γH2AX” value is “robust increase in CARP-1 levels and γH2AX”. For the same compound, where the note is “10 μM”, the “expression of CARP-1, phospho-JNK1/2, phospho-H2AX” value is “stimulated expression of CARP-1, phospho-JNK1/2, and phospho-H2AX in a time-dependent manner”; the PARP cleavage result is “provoked PARP cleavage in a time-dependent manner”.
